Measurements reported in US6468476B1, “Methods for using-co-regulated genesets to enhance detection and classification of gene expression patterns” (Rosetta Inpharmatics, Inc., priority 1998, dated 2002).

System: genes regulated by the Gcn4 transcription factor
Assay: Transcript response (DNA microarray) to a titration series of FK506, genes of the Gcn4 geneset
Format: cell-based, Saccharomyces cerevisiae
Description: Yeast (Saccharomyces cerevisiae, Strain YPH499, see, Sikorski and Hieter, 1989, A system of shuttle vectors and yeast host strains designated for efficient manipulation of DNA in Saccharomyces cerevisiae, Genetics 122:19-27) cells were grown in YAPD at 30° C. to an OD600 of 1.0 (±0.2), and total RNA prepared by breaking cells in phenol/chloroform and 0.1% SDS by standard procedures (Ausubel et al., 1995, Current Protocols in Molecular Biology, Greene Publishing and Wiley-Interscience, New York, Ch. 13). Poly(A)^+ RNA was selected by affinity chromatography on oligo-dT cellulose (New England Biolabs) essentially as described in Sambrook et al. (Molecular Cloning—A Laboratory Manual (2nd Ed.), Vol. 1, Cold Spring Harbor Laboratory, Cold Spring Harbor, N.Y., 1989). First strand cDNA synthesis was carried out with 2 μg poly(A)^+ RNA and SuperScript™ II reverse transcriptase (Gibco-BRL) according to the manufacturer's instructions with the following modifications. Deoxyribonucleotides were present at the following concentrations: dA, dG, and dC at 500 μM each, dT at 100 μM and either Cy3-dUTP or Cy5-dUTP (Amersham) at 100 μM. cDNA synthesis reactions were carried out at 42-44° C. for 90 minutes, after which RNA was degraded by the addition of 2 units of RNAse H, and the cDNA products were purified by two successive rounds of centrifugation dialysis using MICROCON-30 microconcentrators (Amicon) according to the manufacturer's recommendations.
Double-stranded DNA polynucleotides corresponding in sequence to each ORF in the S. cerevisiae genome encoding a polypeptide greater than 99 amino acids (based on the published yeast genomic sequence, e.g., Goffeau et al., 1996, Science 274:546-567) are made by polymerase chain reaction (PCR) amplification of yeast genomic DNA. Two PCR primers are chosen internal to each of the ORFs according to two criteria: (i) the amplified fragments are 300-800 bp and (ii) none of the fragments have a section of more than 10 consecutive nucleotides of sequence in common. Computer programs are used to aid in the design of the PCR primers. Amplification is carried out in 96 well microtitre plates. The resulting DNA fragments are printed onto glass microscope slides using the method of Shalon et al., 1996, Genome Research 6:639-645.
Fluorescently-labeled cDNAs (2-6 μg) are resuspended in 4×SSC plus 1 μg/μl tRNA as carrier and filtered using […] filters (Millipore, Bedford, Mass.). SDS is added to 0.3%, prior to heating to 100° C. for 2 minutes. Probes are cooled and immediately hybridized to the microarrays produced as described in Example 6.2, for 4 hours at 65° C. Non-hybridized probe is removed by washing in 1×SSC plus 0.1% SDS at ambient temperature for 1-2 minutes. Microarrays are scanned with a fluorescence laser-scanning device as previously described (Schena et al., 1995, Science 270:467-470; Schena et al., 1995, Proc. Natl. Acad. Sci. USA 93:[…]) and the results (including the positions of perturbations) are recorded.
Geneset number 3 in the clustering analysis result of FIG. 6 involves genes regulated by the Gcn4 transcription factor. This was verified via the literature and via multiple sequence alignment analysis of the regulatory regions 5′ to the individual genes (Stormo and Hartzell, 1989, Identifying protein binding sites from unaligned DNA fragments, Proc Natl Acad Sci 86:1183-1187; Hertz and Stormo, 1995, Identification of consensus patterns in unaligned DNA and protein sequences: a large-deviation statistical basis for penalizing gaps, Proc of 3rd Intl Conf on Bioinformatics and Genome Research, Lim and Cantor, eds., World Scientific Publishing Co., Ltd. Singapore, pp. 201-216). […] These 20 were used to define a geneset. Response profiles to a titration series of the drug FK506, which is known to hit this pathway at higher concentrations, were projected onto this geneset. […]

For `C=CC[C@@H]1/C=C(\C)C[C@H](C)C[C@H](OC)[C@H]2O[C@@](O)(C(=O)C(=O)N3CCCC[C@H]3C(=O)O[C@H](/C(C)=C/[C@@H]3CC[C@@H](O)[C@H](OC)C3)[C@H](C)[C@@H](O)CC1=O)[C@H](C)C[C@@H]2OC` [FK506], the “Geneset Average response (projected response of the 20-gene Gcn4 geneset)” value (from here on “Geneset Average response”) (FK506 7.5 μg/ml) was 7.8209 standard deviations of Log10(Expression Ratio), the “Response of gene ARG1” value (FK506 7.5 μg/ml) was 4.2215 standard deviations of Log10(Expression Ratio) and the “Response of gene ARG4” value (FK506 7.5 μg/ml) was 3.2973 standard deviations of Log10(Expression Ratio). For the same compound, the “Response of gene ARG5,6” value (FK506 7.5 μg/ml) was 2.7433 standard deviations of Log10(Expression Ratio), the “Response of gene ARO3” value (FK506 7.5 μg/ml) was 0.6059 standard deviations of Log10(Expression Ratio) and the “Response of gene ECM13” value (FK506 7.5 μg/ml) was 2.5343 standard deviations of Log10(Expression Ratio). The “Response of gene HIS3” value (FK506 7.5 μg/ml) was 1.8024 standard deviations of Log10(Expression Ratio), the “Response of gene HIS5” value (FK506 7.5 μg/ml) was 2.8414 standard deviations of Log10(Expression Ratio) and the “Response of gene MET16” value (FK506 7.5 μg/ml) was 0.1621 standard deviations of Log10(Expression Ratio). For the same compound, the “Response of gene NCE3” value (FK506 7.5 μg/ml) was 1.569 standard deviations of Log10(Expression Ratio), the “Response of gene PCL5” value (FK506 7.5 μg/ml) was 2.2898 standard deviations of Log10(Expression Ratio) and the “Response of gene SNO1” value (FK506 7.5 μg/ml) was 2.538 standard deviations of Log10(Expression Ratio). The “Response of gene SNZ1” value (FK506 7.5 μg/ml) was 2.538 standard deviations of Log10(Expression Ratio), the “Response of gene SSU1” value (FK506 7.5 μg/ml) was 0.5059 standard deviations of Log10(Expression Ratio) and the “Response of gene YBR047W” value (FK506 7.5 μg/ml) was 1.1596 standard deviations of Log10(Expression Ratio). The “Response of gene YER024W” value (FK506 7.5 μg/ml) was 1.1526 standard deviations of Log10(Expression Ratio), the “Response of gene YGL117W” value (FK506 7.5 μg/ml) was 2.699 standard deviations of Log10(Expression Ratio) and the “Response of gene YGL184C” value (FK506 7.5 μg/ml) was −0.4586 standard deviations of Log10(Expression Ratio). The “Response of gene YHR029C” value (FK506 7.5 μg/ml) was 2.3813 standard deviations of Log10(Expression Ratio), the “Response of gene YMR195W” value (FK506 7.5 μg/ml) was 0.8879 standard deviations of Log10(Expression Ratio) and the “Geneset Average response” value (FK506 16 μg/ml) was 19.9913 standard deviations of Log10(Expression Ratio). The “Response of gene ARG1” value (FK506 16 μg/ml) was 4.711 standard deviations of Log10(Expression Ratio), the “Response of gene ARG4” value (FK506 16 μg/ml) was 4.5135 standard deviations of Log10(Expression Ratio) and the “Response of gene ARG5,6” value (FK506 16 μg/ml) was 6.0457 standard deviations of Log10(Expression Ratio). For the same compound, the “Response of gene ARO3” value (FK506 16 μg/ml) was 4.0553 standard deviations of Log10(Expression Ratio), the “Response of gene CPA2” value (FK506 16 μg/ml) was 4.1093 standard deviations of Log10(Expression Ratio) and the “Response of gene ECM13” value (FK506 16 μg/ml) was 4.8689 standard deviations of Log10(Expression Ratio). The “Response of gene HIS3” value (FK506 16 μg/ml) was 4.6461 standard deviations of Log10(Expression Ratio), the “Response of gene HIS5” value (FK506 16 μg/ml) was 6.0052 standard deviations of Log10(Expression Ratio) and the “Response of gene MET16” value (FK506 16 μg/ml) was 3.3857 standard deviations of Log10(Expression Ratio). For the same compound, the “Response of gene NCE3” value (FK506 16 μg/ml) was 5.5819 standard deviations of Log10(Expression Ratio), the “Response of gene PCL5” value (FK506 16 μg/ml) was 5.4688 standard deviations of Log10(Expression Ratio) and the “Response of gene SNO1” value (FK506 16 μg/ml) was 5.8877 standard deviations of Log10(Expression Ratio). The “Response of gene SNZ1” value (FK506 16 μg/ml) was 5.8877 standard deviations of Log10(Expression Ratio), the “Response of gene SSU1” value (FK506 16 μg/ml) was 4.6461 standard deviations of Log10(Expression Ratio) and the “Response of gene YBR047W” value (FK506 16 μg/ml) was 3.3107 standard deviations of Log10(Expression Ratio). For the same compound, the “Response of gene YER024W” value (FK506 16 μg/ml) was 4.6342 standard deviations of Log10(Expression Ratio), the “Response of gene YGL117W” value (FK506 16 μg/ml) was 4.9827 standard deviations of Log10(Expression Ratio) and the “Response of gene YGL184C” value (FK506 16 μg/ml) was 2.7166 standard deviations of Log10(Expression Ratio). The “Response of gene YHR029C” value (FK506 16 μg/ml) was 5.0446 standard deviations of Log10(Expression Ratio), the “Response of gene YMR195W” value (FK506 16 μg/ml) was 4.0983 standard deviations of Log10(Expression Ratio) and the “Geneset Average response” value (FK506 50 μg/ml) was 21.3315 standard deviations of Log10(Expression Ratio). For the same compound, the “Response of gene ARG1” value (FK506 50 μg/ml) was 5.7996 standard deviations of Log10(Expression Ratio), the “Response of gene ARG4” value (FK506 50 μg/ml) was 5.8858 standard deviations of Log10(Expression Ratio) and the “Response of gene ARG5,6” value (FK506 50 μg/ml) was 5.2406 standard deviations of Log10(Expression Ratio). For the same compound, the “Response of gene ARO3” value (FK506 50 μg/ml) was 5.7035 standard deviations of Log10(Expression Ratio), the “Response of gene CPA2” value (FK506 50 μg/ml) was 4.0958 standard deviations of Log10(Expression Ratio) and the “Response of gene ECM13” value (FK506 50 μg/ml) was 3.1882 standard deviations of Log10(Expression Ratio). For the same compound, the “Response of gene HIS3” value (FK506 50 μg/ml) was 5.2637 standard deviations of Log10(Expression Ratio), the “Response of gene HIS5” value (FK506 50 μg/ml) was 4.9557 standard deviations of Log10(Expression Ratio) and the “Response of gene MET16” value (FK506 50 μg/ml) was 4.855 standard deviations of Log10(Expression Ratio). The “Response of gene NCE3” value (FK506 50 μg/ml) was 3.3928 standard deviations of Log10(Expression Ratio), the “Response of gene PCL5” value (FK506 50 μg/ml) was 5.2339 standard deviations of Log10(Expression Ratio) and the “Response of gene SNO1” value (FK506 50 μg/ml) was 5.5665 standard deviations of Log10(Expression Ratio). The “Response of gene SNZ1” value (FK506 50 μg/ml) was 5.5665 standard deviations of Log10(Expression Ratio), the “Response of gene SSU1” value (FK506 50 μg/ml) was 3.5782 standard deviations of Log10(Expression Ratio) and the “Response of gene YBR047W” value (FK506 50 μg/ml) was 4.248 standard deviations of Log10(Expression Ratio). For the same compound, the “Response of gene YER024W” value (FK506 50 μg/ml) was 5.8934 standard deviations of Log10(Expression Ratio), the “Response of gene YGL117W” value (FK506 50 μg/ml) was 5.9066 standard deviations of Log10(Expression Ratio) and the “Response of gene YGL184C” value (FK506 50 μg/ml) was 5.3106 standard deviations of Log10(Expression Ratio). The “Response of gene YHR029C” value (FK506 50 μg/ml) was 5.5781 standard deviations of Log10(Expression Ratio) and the “Response of gene YMR195W” value (FK506 50 μg/ml) was 4.6141 standard deviations of Log10(Expression Ratio).
